In ChEMBL document CHEMBL1201862, “PubChem BioAssay data set” (2004):
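The compound was tested at five concentrations on cells cultured in 96-well plates, with a 48-hour exposure period. Abbreviation: GI50, concentration required for 50% inhibition of growth.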 Active and inactive are the calls of the source. Cut-off read from the data, not from the text of the source: active = GI50 up to about 1.1 µM and inactive = higher.

Assays:
Assay in all cases: NCI tumour cell line growth inhibition, 48 h
786-0 = tested on: 786-0
A498 = tested on: A498
A549 = tested on: A549
ACHN = tested on: ACHN
CAKI-1 = tested on: CAKI-1
CCRF-CEM = tested on: CCRF-CEM
COLO 205 = tested on: COLO 205
DU-145 = tested on: DU-145
EKVX = tested on: EKVX
HCT-116 = tested on: HCT-116
HCT-15 = tested on: HCT-15
HL-60 = tested on: HL-60
HOP-62 = tested on: HOP-62
HOP-92 = tested on: HOP-92
HT-29 = tested on: HT-29
Hs-578T = tested on: Hs-578T
IGROV-1 = tested on: IGROV-1
K562 = tested on: K562
KM12 = tested on: KM12
M14 = tested on: M14
MCF7 = tested on: MCF7
MDA-MB-231 = tested on: MDA-MB-231
MDA-MB-435 = tested on: MDA-MB-435
MDA-N = tested on: MDA-N
MOLT-4 = tested on: MOLT-4
NCI-H226 = tested on: NCI-H226
NCI-H23 = tested on: NCI-H23
NCI-H460 = tested on: NCI-H460
NCI-H522 = tested on: NCI-H522
NCI/ADR-RES = tested on: NCI/ADR-RES
OVCAR-3 = tested on: OVCAR-3
OVCAR-4 = tested on: OVCAR-4
OVCAR-5 = tested on: OVCAR-5
OVCAR-8 = tested on: OVCAR-8
PC-3 = tested on: PC-3
RPMI-8226 = tested on: RPMI-8226
SF-268 = tested on: SF-268
SF-295 = tested on: SF-295
SK-MEL-28 = tested on: SK-MEL-28
SK-MEL-2 = tested on: SK-MEL-2
SK-MEL-5 = tested on: SK-MEL-5
SK-OV-3 = tested on: SK-OV-3
SN12C = tested on: SN12C
SNB-19 = tested on: SNB-19
SNB-75 = tested on: SNB-75
SR = tested on: SR
SW-620 = tested on: SW-620
T47D = tested on: T47D
TK-10 = tested on: TK-10
U-251 = tested on: U-251
UACC-257 = tested on: UACC-257
UACC-62 = tested on: UACC-62
UO-31 = tested on: UO-31

## COCOCC1CCCN1CN1CCC[C@H]1COCOC (stereo partly drawn)
786-0
  GI50: 26.5 µM (inactive)
A498
  GI50: > 100 µM (inactive)
A549
  GI50: > 100 µM (inactive)
ACHN
  GI50: > 100 µM (inactive)
CAKI-1
  GI50: > 100 µM (inactive)
CCRF-CEM
  GI50: 39.2 µM (inactive)
COLO 205
  GI50: 77.8 µM (inactive)
DU-145
  GI50: 42.8 µM (inactive)
EKVX
  GI50: > 100 µM (inactive)
HCT-116
  GI50: 26.9 µM (inactive)
HCT-15
  GI50: 38.3 µM
HL-60
  GI50: 17.6 µM (inactive)
HOP-62
  GI50: > 100 µM (inactive)
HOP-92
  GI50: > 100 µM (inactive)
HT-29
  GI50: 70.6 µM (inactive)
Hs-578T
  GI50: > 100 µM (inactive)
IGROV-1
  GI50: > 100 µM (inactive)
K562
  GI50: > 100 µM (inactive)
KM12
  GI50: > 100 µM (inactive)
M14
  GI50: > 100 µM (inactive)
MCF7
  GI50: 53.1 µM (inactive)
MDA-MB-231
  GI50: > 100 µM (inactive)
MDA-MB-435
  GI50: > 100 µM (inactive)
MDA-N
  GI50: > 100 µM (inactive)
MOLT-4
  GI50: 50.4 µM (inactive)
NCI-H226
  GI50: > 100 µM (inactive)
NCI-H23
  GI50: > 100 µM (inactive)
NCI-H460
  GI50: 60.5 µM (inactive)
NCI-H522
  GI50: > 100 µM (inactive)
NCI/ADR-RES
  GI50: > 100 µM (inactive)
OVCAR-3
  GI50: > 100 µM (inactive)
OVCAR-4
  GI50: > 100 µM (inactive)
OVCAR-5
  GI50: > 100 µM (inactive)
OVCAR-8
  GI50: > 100 µM (inactive)
PC-3
  GI50: > 100 µM (inactive)
RPMI-8226
  GI50: 33.8 µM (inactive)
SF-268
  GI50: > 100 µM (inactive)
SF-295
  GI50: > 100 µM (inactive)
SK-MEL-28
  GI50: > 100 µM (inactive)
SK-MEL-2
  GI50: > 100 µM (inactive)
SK-MEL-5
  GI50: > 100 µM (inactive)
SK-OV-3
  GI50: > 100 µM (inactive)
SN12C
  GI50: > 100 µM (inactive)
SNB-19
  GI50: > 100 µM (inactive)
SNB-75
  GI50: > 100 µM (inactive)
SR
  GI50: 49.8 µM (inactive)
SW-620
  GI50: 33.2 µM (inactive)
T47D
  GI50: > 100 µM (inactive)
TK-10
  GI50: > 100 µM (inactive)
U-251
  GI50: > 100 µM (inactive)
UACC-257
  GI50: > 100 µM (inactive)
UACC-62
  GI50: 36.6 µM (inactive)
UO-31
  GI50: > 100 µM (inactive)
